Test results reported in publication PMC12332667, “Role of Structural Modifications in Peptidomimetic Compounds as Potential Antimicrobial Agents against Staphylococcus aureus and Streptococcus pyogenes: Balancing Bioavailability, Safety, and Antimicrobial Activity” (ACS Omega, 2025).
In brackets after ≈: the same amount, converted by molar mass. Several values for one entry are separate records, joined by “and”; a condition that tells them apart may be missing. Equal values may be shown once.

Experiments:
[1] = system: fibroblasts (46BR.1N); assay: LDH cytotoxicity test, fibroblasts; assay type: cell-based; details: 48 h, 50-150 μg/mL
Protocol: (§1) In our study, we used two distinct cell types: immortalized human HaCaT keratinocytes (DKFZ, Heidelberg, Germany) and a human dermal fibroblast cell line (46BR.1N). […] Cultures were maintained in a humidified atmosphere with 5% CO2 at 37 °C in 25 cm^2 culture flasks with the medium replenished every 2 days. The condition of the cells was monitored using optical microscopy.
(§2) Cell death in immortalized human keratinocytes (HaCaT) and fibroblasts (46BR.1N) was measured by quantifying the lactate dehydrogenase (LDH) activity using a commercial kit (Roche, Switzerland). Cells were seeded in 96-well plates at a density of 5000 cells per well in DMEM high glucose medium supplemented with 10% FBS. After 24 h of incubation, the medium was replaced with serum-free medium containing various concentrations of peptidomimetics (50, 100, and 150 μg/mL). After 48 h, supernatants were collected for LDH analysis. Plate readings were taken spectrophotometrically using a 450 nm wavelength. Cell death measurements were normalized to an untreated control (0%), with 1% Triton X-100 detergent used as a positive control to induce maximum LDH release, indicating maximal cytotoxicity. Statistical significance was determined with a Mann–Whitney U test with a statistical significance p ≤ 0.05. Analysis was performed with Statistica software (Krakow, Poland) and graphs were prepared in GraphPad Prism (Boston, USA).

[2] = system: immortalized human HaCaT keratinocytes; assay: XTT cell proliferation assay, keratinocytes; assay type: cell-based; details: XTT; for effect on proliferation, in words: 48 and 72 h, 0.01–150 μg/mL
Protocol: (§3) In our study, we used two distinct cell types: immortalized human HaCaT keratinocytes (DKFZ, Heidelberg, Germany) and a human dermal fibroblast cell line (46BR.1N). […] Cultures were maintained in a humidified atmosphere with 5% CO2 at 37 °C in 25 cm^2 culture flasks with the medium replenished every 2 days. The condition of the cells was monitored using optical microscopy. […] After 24 h of incubation, the medium was replaced with serum-free HG-DMEM containing appropriate concentrations of peptidomimetics. All solutions used in the experiments were prepared with double-distilled water or with the addition of ethanol under sterile conditions to ensure compatibility with the conditions of the bacteriological assay. For 72 h of incubation, half of the medium was replaced with fresh medium after 48 h, and cells were stimulated with peptides for a second time. The XTT cell proliferation assay was then performed according to the manufacturer’s instructions (Roche, Switzerland). Cells were treated with the peptides for either 48 or 72 h, followed by the addition of XTT reagent, and the plates were then incubated at 37 °C in a 5% CO2 environment for 4 h. Plate readings were taken using a standard plate reader at a wavelength of 490 nm (OD = 490 nm). […] Statistical significance was determined with a Mann–Whitney U test with statistical significance p ≤ 0.05. Analysis was performed with Statistica software, and graphs were prepared in GraphPad Prism.

[3] = Hydrophobicity by reverse-phase chromatography; assay type: physicochemical; details: acetonitrile content in the mobile phase at the retention time
Excerpt: Reverse-phase chromatography was employed to assess the hydrophobicity characteristics of the peptidomimetics. Hydrophobicity was quantified by determining the acetonitrile content in the mobile phase at the retention time of a peptidyl derivative (Table S2). The least hydrophobic compound (40% acetonitrile) was A-198, which aligns with the calculations of hydrophobicity by SwissADME and pkCSM (Table ). Next in the hydrophobicity sequence were A-197, A-220, A-219, A-174, and A-221, eluting with 42.5-43.9% of acetonitrile. Then there were followed by […], and A-179, with the acetonitrile percentage of 44.8-49.8. The compounds A-176, A-20, A-152, A-134, and A-210 needed over 50% of acetonitrile to be eluted from the column.

[4] = system: S. mutans c.i.; assay: MIC/MBC broth microdilution, S. mutans; assay type: cell-based, Streptococcus mutans
Protocol: (§4) S. aureus (ATCC 29213),S. pyogenes (ATCC 19615),Streptococcus agalactiae (ATCC 27956),Escherichia coli (ATCC 25922),Proteus vulgaris (ATCC 6896),K. pneumoniae (ATCC 700603) andP. aeruginosa (ATCC 10145) reference strains, as well asStaphylococcus cohnii, Enterococcus faecalis, Staphylococcus schleiferi, Staphylococcus intermedius and Streptococcus mutans clinical isolates, were used to test the antibacterial activity of the peptidomimetics. Bacteria were aerobically cultured for 18 h at 37 °C in plates with sterilized brain heart infusion (BHI) broth (Sigma-Aldrich, USA) media mixed with bacteriological agar (Sigma-Aldrich, USA) using the streak plate method. After 18 h, BHI broth was inoculated to 0.5 on the McFarland scale and diluted to approximately 10^5 CFU/mL. To achieve a final stock concentration of 1024 μg/mL, the peptidomimetics were dissolved in sterile water, and 5–10% of absolute ethanol or dimethyl sulfoxide (DMSO) was added. The antibacterial activities were determined by using the standard broth microdilution method of the National Committee for Clinical Laboratory Standards. The process involved adding serially diluted peptidomimetics to consecutive wells of a 96-well microtiter plate (Brand, Germany) holding media with microorganisms. The inoculated plates treated with peptides were then placed in an incubator at 37 °C for 18 h. The MIC value was determined as the lowest concentration of peptidomimetic at which there was no obvious growth (equal or more than 90% of the untreated sample). […] The lowest concentration yielding growth in no more than 3 colonies, corresponding to at least a 99.9% kill rate, was taken as MBC. Each biological replicate included control wells with the addition of water, DMSO, and ethanol as respective solvent controls. All experiments were conducted with consistent adherence to growth and sterility controls and were performed at least in technical triplicate with three biological repeats.

[5] = system: S. schleiferi c.i.; assay: MIC/MBC broth microdilution, S. schleiferi; assay type: cell-based, Staphylococcus schleiferi
Protocol: as §4

[6] = system: S. agalactiae ATCC 27956; assay: MIC/MBC broth microdilution, S. agalactiae; assay type: cell-based, Streptococcus agalactiae; details: S. agalactiae
Protocol: as §4

[7] = system: P. vulgaris ATCC 6896; assay: MIC/MBC broth microdilution, P. vulgaris; assay type: cell-based, Proteus vulgaris
Protocol: as §4

[8] = system: S. cohnii c.i.; assay: MIC/MBC broth microdilution, S. cohnii; assay type: cell-based, Staphylococcus cohnii
Protocol: as §4

[9] = system: S. aureus ATCC 43300; assay: MIC/MBC broth microdilution, S. aureus; assay type: cell-based, Staphylococcus aureus; details: for MBC / MIC: S. aureus
[10] = system: immortalized human keratinocytes (HaCaT); assay: LDH cytotoxicity test, keratinocytes; assay type: cell-based; details: 48 h, 50-150 μg/mL
Protocol: as §1, §2

[11] = system: S. pyogenes ATCC 19615; assay: MIC/MBC broth microdilution, S. pyogenes; assay type: cell-based, Streptococcus pyogenes; details: S. pyogenes
Protocol: as §4

[12] = system: human dermal fibroblast cell line (46BR.1N); assay: XTT cell proliferation assay, fibroblasts; assay type: cell-based; details: XTT; for effect on proliferation, in words: 48 and 72 h, 0.01–150 μg/mL
Protocol: as §3

[13] = system: P. aeruginosa ATCC 10145; assay: MIC/MBC broth microdilution, P. aeruginosa; assay type: cell-based
Protocol: as §4

[14] = system: E. faecalis c.i.; assay: MIC/MBC broth microdilution, E. faecalis; assay type: cell-based, Enterococcus faecalis
Protocol: as §4

[15] = system: K. pneumoniae ATCC 700603; assay: MIC/MBC broth microdilution, K. pneumoniae; assay type: cell-based
Protocol: as §4

[16] = system: E. coli ATCC 25922; assay: MIC/MBC broth microdilution, E. coli; assay type: cell-based, Escherichia coli
Protocol: as §4

[17] = system: S. intemrdius c.i.; assay: MIC/MBC broth microdilution, S. intermedius; assay type: cell-based, Staphylococcus intermedius
Protocol: as §4

## CC(C)[C@@H](CNC(=O)/C=C/c1ccccc1)NC(=O)[C@H](Cc1c[nH]cn1)NC(=O)[C@H](CCCCN)NC(=O)OCc1ccccc1 [Compound A-174]
[1]
  cytotoxicity (LDH), in words: no cytotoxicity
[2]
  effect on proliferation, in words: did not exert any negative impact
[3]
  % AcCN (acetonitrile required for elution from the column): 42.9%
[4]; H2O
  MIC: > 512 µg/mL
[4]; water additive DMSO
  MIC: > 512 µg/mL
[4]; water additive EtOH
  MIC: > 512 µg/mL
[5]; H2O
  MIC: > 512 µg/mL
[5]; water additive DMSO
  MIC: > 512 µg/mL
[5]; water additive EtOH
  MBC: 512 µg/mL (≈ 810 µM)
  MIC: 512 µg/mL (≈ 810 µM)
[6]; H2O
  MBC: 512 µg/mL (≈ 810 µM)
  MIC: 512 µg/mL (≈ 810 µM)
[6]; water additive DMSO
  MBC: 512 µg/mL (≈ 810 µM)
  MIC: 512 µg/mL (≈ 810 µM)
[6]; water additive EtOH
  MBC: 512 µg/mL (≈ 810 µM)
  MIC: 256 µg/mL (≈ 405 µM)
[7]; H2O
  MIC: > 512 µg/mL
[7]; water additive DMSO
  MIC: > 512 µg/mL
[7]; water additive EtOH
  MBC: > 512 µg/mL
  MIC: 512 µg/mL (≈ 810 µM)
[8]; H2O
  MBC: 256 µg/mL (≈ 405 µM)
  MIC: 256 µg/mL (≈ 405 µM)
[8]; water additive DMSO
  MBC: 256 µg/mL (≈ 405 µM)
[8]; water additive EtOH
  MBC: 256 µg/mL (≈ 405 µM)
[9]; H2O
  MBC: 512 µg/mL (≈ 810 µM)
  MIC: 256 µg/mL (≈ 405 µM)
[9]; water additive DMSO
  MBC: 512 µg/mL (≈ 810 µM)
  MIC: 512 µg/mL (≈ 810 µM)
[9]; water additive EtOH
  MBC: 512 µg/mL (≈ 810 µM)
  MIC: 512 µg/mL (≈ 810 µM)
[10]
  cytotoxicity (LDH), in words: no cytotoxicity
[11]; H2O
  MBC: 256 µg/mL (≈ 405 µM)
[11]; water additive DMSO
  MBC: 256 µg/mL (≈ 405 µM)
[11]; water additive EtOH
  MBC: 256 µg/mL (≈ 405 µM)
[12]
  effect on proliferation, in words: did not exert any negative impact
[13]; H2O
  MIC: > 512 µg/mL
[13]; water additive DMSO
  MIC: > 512 µg/mL
[13]; water additive EtOH
  MBC: > 512 µg/mL
  MIC: 512 µg/mL (≈ 810 µM)
[14]; H2O
  MIC: > 512 µg/mL
[14]; water additive DMSO
  MIC: > 512 µg/mL
[14]; water additive EtOH
  MIC: > 512 µg/mL
[15]; H2O
  MIC: > 512 µg/mL
[15]; water additive DMSO
  MIC: > 512 µg/mL
[15]; water additive EtOH
  MIC: > 512 µg/mL
[16]; H2O
  MIC: > 512 µg/mL
[16]; water additive DMSO
  MIC: > 512 µg/mL
[16]; water additive EtOH
  MIC: > 512 µg/mL

## CC(C)[C@@H](CNC(=O)C(=Cc1ccccc1)c1ccccc1)NC(=O)[C@H](CCCNC(=N)N)NC(=O)[C@H](CCCCN)NC(=O)OCc1ccccc1 [Compound A-191]
[1]
  cytotoxicity (LDH), in words: high cytotoxic effect only to fibroblasts at the highest tested concentration
[2]
  proliferation relative to control at 100 and 150 μg/mL: ≤ 20%
  effect on proliferation, in words: negative impact
[3]
  % AcCN (acetonitrile required for elution from the column): 44.8% and 44.8–49.8%
[4]; water additive DMSO
  MIC: 32 µg/mL (≈ 44 µM)
[4]; water additive EtOH
  MIC: 32 µg/mL (≈ 44 µM)
[5]; H2O
  MBC: 32 µg/mL (≈ 44 µM)
  MIC: 8 µg/mL (≈ 11 µM)
[5]; water additive DMSO
  MBC: 32 µg/mL (≈ 44 µM)
  MIC: 8 µg/mL (≈ 11 µM)
[5]; water additive EtOH
  MBC: 32 µg/mL (≈ 44 µM)
  MIC: 8 µg/mL (≈ 11 µM)
[17]; H2O
  MIC: 32 µg/mL (≈ 44 µM)
[17]; water additive DMSO
  MIC: 32 µg/mL (≈ 44 µM)
[17]; water additive EtOH
  MIC: 32 µg/mL (≈ 44 µM)
[7]; H2O
  MBC: > 512 µg/mL
  MIC: 512 µg/mL (≈ 704 µM)
[7]; water additive DMSO
  MIC: > 512 µg/mL
[7]; water additive EtOH
  MBC: > 512 µg/mL
  MIC: 512 µg/mL (≈ 704 µM)
[9]; H2O
  MBC: 32 µg/mL (≈ 44 µM)
  MIC: 32 µg/mL (≈ 44 µM)
[9]; water additive DMSO
  MBC: 32 µg/mL (≈ 44 µM)
  MIC: 16 µg/mL (≈ 22 µM)
[9]; water additive EtOH
  MBC: 32 µg/mL (≈ 44 µM)
  MIC: 16 µg/mL (≈ 22 µM)
[9]; additive not stated
  MIC value for S. aureus: 16 µg/mL
[11]; H2O
  MBC: 4 µg/mL (≈ 5.5 µM)
  MIC: 4 µg/mL (≈ 5.5 µM)
[11]; water additive DMSO
  MBC: 8 µg/mL (≈ 11 µM)
  MIC: 4 µg/mL (≈ 5.5 µM)
[11]; water additive EtOH
  MBC: 8 µg/mL (≈ 11 µM)
  MIC: 4 µg/mL (≈ 5.5 µM)
[12]
  proliferation relative to control at 100 and 150 μg/mL: ≤ 20%
  effect on proliferation, in words: negative impact
[13]; H2O
  MBC: 256 µg/mL (≈ 352 µM)
[13]; water additive DMSO
  MBC: 256 µg/mL (≈ 352 µM)
[14]; H2O
  MBC: > 512 µg/mL
  MIC: 512 µg/mL (≈ 704 µM)
[14]; water additive DMSO
  MBC: > 512 µg/mL
  MIC: 512 µg/mL (≈ 704 µM)
[14]; water additive EtOH
  MIC: > 512 µg/mL
[15]; H2O
  MIC: > 512 µg/mL
[15]; water additive DMSO
  MIC: > 512 µg/mL
[15]; water additive EtOH
  MBC: > 512 µg/mL
  MIC: 512 µg/mL (≈ 704 µM)
[16]; H2O
  MBC: > 512 µg/mL
  MIC: 512 µg/mL (≈ 704 µM)
[16]; water additive DMSO
  MBC: > 512 µg/mL
  MIC: 512 µg/mL (≈ 704 µM)
[16]; water additive EtOH
  MBC: > 512 µg/mL
  MIC: 512 µg/mL (≈ 704 µM)
